The supplement of paper PMC11061612

Columns and labels:
Test in all cases: combination Emax (second highest fraction inhibited in the dose matrix, 72 h); higher = more inhibition; extreme values may be limits of the assay
ES1 (Ewing's Sarcoma) = test system: ES1 (Ewing's Sarcoma)
Summary of the method: (§1)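 After 24 hours at 37°C and 5% CO2 in 1536-well plates, cells in DMEM/F12 or RPMI plus 10% FBS received two-drug dose matrices for 72 hours. Viability came from CellTiter-Glo 2.0 luminescence and was scaled as inhibition, anchored at 0 by vehicle wells and at 1 by blank wells. Combination Emax is taken as the second-highest inhibition in the matrix, and Bliss excess as the observed combination effect less EA + EB − EA·EB, with EA and EB the single-agent effects.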

[1] = test system: MFM-223 (Breast Carcinoma)
Summary of the method: as §1

[2] = test system: K-562 (Chronic Myelogenous Leukemia)
Summary of the method: as §1

[3] = test system: PANC-08-13 (Pancreatic Carcinoma)
Summary of the method: as §1

NCI-H2818 (Mesothelioma) = test system: NCI-H2818 (Mesothelioma)
Summary of the method: as §1

[4] = test system: SR (Other Blood Carcinomas)
Summary of the method: as §1

[5] = test system: MKN28 (Gastric Carcinoma)
Summary of the method: as §1

TC-71 (Ewing's Sarcoma) = test system: TC-71 (Ewing's Sarcoma)
Summary of the method: as §1

[6] = test system: GR-ST (B-Lymphoblastic Leukemia)
Summary of the method: as §1

[7] = test system: KCL-22 (Chronic Myelogenous Leukemia)
Summary of the method: as §1

[8] = test system: NCI-H1792 (Lung Adenocarcinoma)
Summary of the method: as §1

[9] = test system: MS751 (Cervical Carcinoma)
Summary of the method: as §1

[10] = test system: L-540 (Hodgkin's Lymphoma)
Summary of the method: as §1

[11] = test system: KARPAS-45 (T-Lymphoblastic Leukemia)
Summary of the method: as §1

CHP-212 (Neuroblastoma) = test system: CHP-212 (Neuroblastoma)
Summary of the method: as §1

[12] = test system: HDQ-P1 (Breast Carcinoma)
Summary of the method: as §1

[13] = test system: SU-DHL-8 (B-Cell Non-Hodgkin's Lymphoma)
Summary of the method: as §1

WM-115 (Melanoma) = test system: WM-115 (Melanoma)
Summary of the method: as §1

[14] = test system: DND-41 (T-Lymphoblastic Leukemia)
Summary of the method: as §1

[15] = test system: NCI-H847 (Small Cell Lung Carcinoma)
Summary of the method: as §1

Structure (SMILES) | combination Emax (ES1 (Ewing's Sarcoma)) | combination Emax [1] | combination Emax [2] | combination Emax [3] | combination Emax (NCI-H2818 (Mesothelioma)) | combination Emax [4] | combination Emax [5] | combination Emax (TC-71 (Ewing's Sarcoma)) | combination Emax [6] | combination Emax [7] | combination Emax [8] | combination Emax [9] | combination Emax [10] | combination Emax [11] | combination Emax (CHP-212 (Neuroblastoma)) | combination Emax [12] | combination Emax [13] | combination Emax (WM-115 (Melanoma)) | combination Emax [14] | combination Emax [15]
Cc1c2c(nn1C)CSCc1cc(n(C)n1)CSc1cc(c3ccccc3c1)OCCCc1c(C(=O)O)n(C)c3c-2c(Cl)ccc13 [AZD5991] + C[C@@H](Nc1cc(F)cc(F)c1)c1cc(C(=O)N(C)C)cc2c(=O)cc(N3CCOCC3)oc12 [AZD8186] (first compound max 1 µM, 7x7, partner max 3 µM) | 0.904 | 0.258 | 0.389 | 0.263 | 0.387 | 0.954 | 0.232 | 0.573 | 0.257 | 0.87 | 0.441 | 0.851 | 1 | 0.99 | 0.882 | 0.237 | 0.688 | 0.656 | 0.0838 | 0.792
Cc1c2c(nn1C)CSCc1cc(n(C)n1)CSc1cc(c3ccccc3c1)OCCCc1c(C(=O)O)n(C)c3c-2c(Cl)ccc13 [AZD5991] + Cc1cc2ncnn2cc1Nc1ncc2c(n1)n(C1CCOCC1)c(=O)n2C [AZD7648] (first compound max 1 µM, 7x7, partner max 10 µM) | 0.798 | 0.288 | 0.182 | 0.238 | 0.48 | 0.984 | 0.25 | 0.48 | 0.464 | 0.94 | 0.441 | 0.829 | 1 | 0.936 | 0.831 | 0.257 | 0.684 | 0.357 | 0.164 | 0.877
Cc1c2c(nn1C)CSCc1cc(n(C)n1)CSc1cc(c3ccccc3c1)OCCCc1c(C(=O)O)n(C)c3c-2c(Cl)ccc13 [AZD5991] + Cn1cnc2c(F)c(Nc3ccc(Br)cc3Cl)c(C(=O)NOCCO)cc21 [Selumetinib] (first compound max 1 µM, 7x7, partner max 3 µM) | 0.777 | 0.282 | 0.416 | 0.208 | 0.293 | 0.952 | 0.387 | 0.578 | 0.0688 | 0.959 | 0.704 | 0.896 | 1 | 0.922 | 0.944 | 0.211 | 0.655 | 0.68 | 0.181 | 0.863
C[C@@H]1COCCN1c1cc(C2([S@](C)(=N)=O)CC2)nc(-c2ccnc3[nH]ccc23)n1 [AZD6738] + O=C(c1cc(Cc2n[nH]c(=O)c3ccccc23)ccc1F)N1CCN(C(=O)C2CC2)CC1 [Olaparib] (first compound max 10 µM, 7x7, partner max 10 µM) | 0.99 | 0.773 | 0.811 | 0.313 | 0.45 | 0.97 | 0.484 | 0.887 | 0.803 | 0.909 | 0.707 | 0.395 | 0.936 | 0.832 | 0.795 | 0.512 | 0.888 | 0.518 | 0.947 | 0.978
Cc1cc2ncnn2cc1Nc1ncc2c(n1)n(C1CCOCC1)c(=O)n2C [AZD7648] + C=CCn1c(=O)c2cnc(Nc3ccc(N4CCN(C)CC4)cc3)nc2n1-c1cccc(C(C)(C)O)n1 [AZD1775] (first compound max 10 µM, partner max 1 µM) | 0.639 | 0.69 | 0.645 | 0.312 | 0.462 | 0.986 | 0.668 | 0.496 | 0.772 | 0.937 | 0.715 | 0.387 | 0.945 | 0.819 | 0.769 | 0.567 | 0.87 | 0.469 | 0.813 | 1
Cc1cc2ncnn2cc1Nc1ncc2c(n1)n(C1CCOCC1)c(=O)n2C [AZD7648] + CCN(CCO)CCCOc1ccc2c(Nc3cc(CC(=O)Nc4cccc(F)c4)[nH]n3)ncnc2c1 [AZD2811] (first compound max 10 µM, 7x7, partner max 1 µM) | 0.724 | 0.298 | 0.202 | 0.254 | 0.434 | 0.86 | 0.309 | 0.793 | 0.466 | 0.485 | 0.553 | 0.453 | 0.504 | 0.931 | 0.693 | 0.423 | 0.245 | 0.42 | 0.236 | 0.971
